The values below come from patent publication US20080014247A1, “METAL-CONTAINING FORMULATIONS AND METHODS OF USE” (Nucryst Pharmaceuticals, priority 2006, published 2008).

A short description of data set [1]: Compatibility of nanocrystalline silver with excipients. Format: physicochemical. The conditions noted are these: 10% aqueous solution of excipient, 40° C. overnight.
A further data set relates to Escherichia coli. The data set can be described thus: MIC assay (microdilution). The data set is classed as cell-based. For orientation: Dilution methods test growth across graded concentrations, often in twofold steps.
The test system of a further data set is Enterobacter cloacae. Description: MIC assay (microdilution). The data set is classed as cell-based.
The test system of data set [2] is Mycobacterium tuberculosis H37Ra (ATCC 25177). Description: microbe, parasite or virus in culture. The data set is classed as cell-based.
The next data set concerns TNF-α. The data set can be described thus: Immunohistochemical staining of colon tissue. Particulars: oral treatment, five days. The data set is classed as in vivo, rat. As to the method:
(§1) Immunohistochemistry: A Universal Streptavidin/Biotin detection system (Thermo Shandon, Pittsburgh, Pa.) was used for immunohistochemical staining of formalin fixed, paraffin embedded biopsies of the colon. After dewaxing, and hydration, sections were treated with protein blocking agent to reduce non-specific binding of antibodies. The tissues were then incubated with rabbit anti-rat TNF-α, or mouse anti-rat IL-12 p70 antibodies (Biosource International, Inc, Camarillo, Calif.); rabbit anti-rat IL-1β (Serotec, Raleigh, N.C.) or rabbit anti-rat MMP-9 antibody (Chemicon International, Telecuma, Calif.) in 1% bovine serum albumin in phosphate buffered saline. Incubations with secondary antibodies, streptavidin/biotin, and chromogenic detection of peroxidase were performed according to the manufacturer's protocol. Sections were counterstained, dehydrated, mounted and examined. The intensity of the immuno-peroxidase staining was graded as described previously. Expression of cytokines was graded as: 0, no staining in the section; 1, less than 25% of the section; 2, 25-50% of the section; 3, 50-75% of the section; 4, >75% of the section with significant staining.

Another data set deals with IL-1β. Description: Immunohistochemical staining of colon tissue. Format: in vivo, rat. The conditions noted are these: oral treatment, five days. Here is the method:
as §1

The test system of data set [3] is MMP-9. Description: Immunohistochemical staining of colon tissue. The data set is classed as in vivo, rat. Particulars: oral treatment, five days. As to the method:
as §1

Data set [4] deals with DNBS-induced colitis. The data set can be described thus: DNBS-induced colitis in rat: total IBD score. The data set is classed as in vivo.
Text: Animals: Male Sprague-Dawley rats, weighing approximately 250-300 gm were purchased from Charles River Laboratories (Raleigh, N.C.). The animals were housed under standard conditions with free access to food and water. They were acclimatized for 2-3 days before commencing the experiments. The study protocol was approved by the Institutional Animal Care and Use Committees (IACUC).
Induction of ulcerative colitis: Colitis was produced according to published methods. Animals were anesthetized by intraperitoneal injection of 75 mg/kg of ketamine plus 5 mg/kg of xylazine. A single intracolonic injection of 120 mg/ml of dinitrobenzenesulfonic acid (DNBS) (Sigma Chemicals, St. Louis, Mo.) in 250 micro liter of 50% ethanol was administered through a Tom Cat catheter (Kendall Sovereign, Mansfield, Mass.) with a closed-end tip, connected to a 1 ml syringe and placed 7 cm proximal to the anus. Lubricant was applied to the tip of the catheter before injection, to protect from mucosal injury. After instillation of DNBS, 0.5 ml of air was insufflated and the catheter was removed.
Sulfasalazine (Sigma Chemicals, St Louis, Mo.), at a concentration of 120 mg/ml for intracolonic treatment and 30 mg/ml for oral treatment was used as the reference drug in all the experiments. Sulfasalazine was first dissolved in 0.1M NaOH at a concentration about 30-fold higher than the required final concentration, and then suspended in 1.5% PVA for oral dosing and 5.7% PVA for intracolonic dosing.
One group was not treated and served as no treatment group. Treatment began one day after administration of DNBS.
Macroscopic Observations: Body weight was recorded daily and the animals were examined for their physical appearance. After five days of treatment, animals were sacrificed. The colon was excised between the ileocecal junction and rectum, and opened longitudinally. After scoring of the consistency of the stool the colon was rinsed in normal saline, examined and thickness of the colonic wall and number and size of ulcers were scored. Stool consistency was graded on a scale of 0-3: 0=normal stool, well formed pellets rigid as normal; 1=loose stool, formed pellet with moisture, soft stool keeping in stool shape; 2=loose stool, stools that have abnormal form with much moisture, softer shapeless stool; 3=watery or bloody diarrhea.
Thickness of colonic wall was graded on a scale of 0-4: 0=normal, no thickness; 1=mild thickness in lower portion of the colon; 2=moderate thickness in localized area; 3=moderate thickness extending to the central portion of the colon; 4=severe thickness in the whole colon. Colonic ulceration was graded on a scale of 0-10: 0=no ulcers; 1=one small ulcer less than 2-3 mm; 2=one large ulcer more than 2-3 mm; 3=two large ulcerations more than 2-3 mm in diameter; 4=two or more sites of ulcerations extending 1 cm along the length; 5-10=when an area of ulceration extended more than 1 cm along the length of the colon, the score increases by 1 for each additional cm of involvement. The total IBD score, obtained by the sum of the scores of colonic ulcer, colon thickness and stool consistency for each animal, was calculated for each treatment group.
Methods: Colitis was induced in rats using DNBS as described in Example 25. Animals were treated intracolonically (250 μl of the test reagents) once a day for five days. […] Methods: Colitis was induced in rats using DNBS as described in Example 25. Animals were treated intracolonically (250 μl of the test reagents) once a day for five days.
For data set [5], the system named is DNBS-induced colitis. Description: DNBS-induced colitis in rat: colon histopathological inflammation score. The data set is classed as in vivo. Particulars: oral 100 mg/kg, five days. Here is the method: Histopathology: A piece of colonic tissue at 2-4 cm proximal to the anus was excised and fixed in 10% formalin and the sections were stained with hematoxylin and eosin. The remaining length of the colonic tissues was stored at −80° C. for subsequent biochemical assays. The histology slides were examined by a veterinary pathologist who was blinded to the treatment groups. The extent of microscopic mucosal damage of the colon was scored on scale of 0-5 as described with slight modification: 0=normal histological appearance; 1=histological damage limited to surface epithelium, mild infiltration of the submucosa; 2=focal ulceration and cell disruption limited to mucosa, abnormal appearance of colonic wall, mild infiltration of inflammatory cells; 3=focal, transmural inflammation and ulceration, with mild to moderate infiltration of inflammatory cells; 4=Extensive transmural ulceration and inflammation bordered by areas of normal mucosa, moderate infiltration of inflammatory cells; 5=extensive transmural ulceration and inflammation involving entire section from epithelium to serosa, severe infiltration of inflammatory cells.

In data set [6] the test system is MMP-9. Description: Gelatin zymography of colonic homogenates. Format: in vivo, rat. The conditions noted are these: oral 100 mg/kg. As to the method: Gelatin Zymography Activities of MMP-9 and MMP-2 in colonic tissue homogenates were determined by gelatin zymography as described previously. Briefly, colonic homogenates were mixed with equal volume of zymograph sample buffer. Samples were loaded on a 10% SDS-polyacrylamide gel containing 0.1% gelatin. After electrophoresis, the SDS was removed from the gel by incubation with renaturing buffer containing 2% Triton-X-100 for 1 hour. The gel was incubated overnight in developing buffer containing 50 mM Tris-HCl, pH 7.8, 5 mM CaCl2, 0.2 M NaCl, 0.02% Brij-35. The gel was subsequently stained with Coumassie blue for 30 minutes and destained with destaining solution containing 8% acetic acid and 4% methanol. Gelatinolytic activity was determined as transparent bands against the blue background of stained gelatin. MMPs were identified by their molecular weight compared with the standards. Absence of a transparent band on the gel was evidenced as no MMP-9 or MMP-2 activity of the sample tested.

Data set [7] is described as follows: DNBS-induced colitis in rat: body weight. Format: in vivo. Particulars: rats with DNBS colitis, intracolonic or oral treatment.
For the next data set, the system named is Pseudomonas aeruginosa. The data set can be described thus: MIC assay (microdilution). The data set is classed as cell-based.
For another data set, the system named is Staphylococcus aureus. Description: MIC assay (microdilution). The data set is classed as cell-based. Particulars: lactate solutions.
Another data set relates to Streptococcus pneumoniae. The data set can be described thus: MIC assay (microdilution). The data set is classed as cell-based. The conditions noted are these: lactate solutions.
Data set [8] has as its system Staphylococcus epidermidis. The data set can be described thus: MIC assay (microdilution). Particulars: S. epiderm (ATCC); lactate solutions. Format: cell-based.
For another data set, the system named is Streptococcus pyogenes. Description: MIC assay (microdilution). The data set is classed as cell-based. The conditions noted are these: lactate solutions.

≈ marks a conversion by molar mass, not a printed value. Entries after “also recorded” stand apart in the source; their conditions may differ. Where two headings read alike, the source gives them in different places. A value given as a limit tells only on which side of the number the result lay.

Take `OCc1ccccc1` [Benzyl alcohol]: in data set [1], the “Reaction with nanocrystalline silver” value is listed as “Grey/slightly red”.

Turning to `CCCCCCCCCCCCCCCCCCO` [Cetearyl alcohol], the “Reaction with nanocrystalline silver” value in [1] was “Light brown/green/black”.

Regarding `CCCCCCCCCCCCCCCCO` [Cetyl alcohol], the “Reaction with nanocrystalline silver” value in [1] is “Grey color - no discoloration”.

With `CCCCCCCCCCCCCCCCCC(=O)OCC(O)CO` (centres unmarked) [Glycerol monostearate], in data set [1], the “Reaction with nanocrystalline silver” value is on record as “Brown discoloration”.

For the compound `CCCCCCCCCCCCCC(=O)OC(C)C` [Isopropyl myristate], the “Reaction with nanocrystalline silver” value in [1] is “Grey color - no discoloration”.

With `COC(=O)c1ccc(O)cc1` [Methylparaben], in [1], the “Reaction with nanocrystalline silver” value is “Brown discoloration”.

Take `CC(O)CO` (centres unmarked) [Propylene glycol]: in data set [1], the “Reaction with nanocrystalline silver” value is “Discoloration”.

On to `CCCOC(=O)c1ccc(O)cc1` [Propylparaben], for which the “Reaction with nanocrystalline silver” value in data set [1] is given as “Green discoloration”.

As to `OO` [Sample H2O2, hydrogen peroxide], the “Reaction with nanocrystalline silver” value in [1] was “Brown discoloration after drying”. In addition, the MIC with Escherichia coli (SOD and catalase +) is more than 500 µg/mL; with Escherichia coli (SOD and catalase −) it was 31 µg/mL (≈ 911 µM); in the data set on Enterobacter cloacae (SOD and catalase +) it was more than 500 µg/mL; against Enterobacter cloacae (SOD and catalase −) it was 63 µg/mL (≈ 1850 µM).

As to `O=C([O-])c1ccccc1.[Na+]` [Sodium benzoate], the “Reaction with nanocrystalline silver” value in data set [1] is “White precipitate”.

Regarding `CCCCCCCCCCCCCCCCCC(=O)O` [Stearic acid], the “Reaction with nanocrystalline silver” value in data set [1] is recorded as “Grey color - no discoloration”.

For `CCOCCOCCO` [Transcutol, diethylene glycol monoethyl ether], in data set [1], the “Reaction with nanocrystalline silver” value was “Grey color - no discoloration”.

In turn, `CC[C@@H](CO)NCCN[C@@H](CC)CO` [ethambutol] returned an MIC in [2] (Mycobacterium tuberculosis) of 2 µg/mL (≈ 9.79 µM).

Regarding `O=C(O)c1cc(/N=N/c2ccc(S(=O)(=O)Nc3ccccn3)cc2)ccc1O` [sulfasalazine, salicylazosulfapyridine], the “expression of TNF-α in colonic tissue” value in the data set with TNF-α is “significantly reduced the expression of TNF-α and IL-1β”. The “expression of IL-1β in colonic tissue” value in the data set on IL-1β was “significantly reduced the expression of TNF-α and IL-1β”. In the data set with MMP-9 [3], the “expression of MMP-9 in colonic tissue” value is “significantly reduced the expression of MMP-9”. For the same compound, the “total IBD score” value in the data set on DNBS-induced colitis [4] (intracolonic 100 mg/kg, five days) was “Significant reduction of IBD score; also recorded: significantly reduced total IBD score”; in the data set with DNBS-induced colitis [4] (intracolonic 100 mg/kg, five days, listed as Sulfasalazine) it was “significantly reduced total IBD score”; with DNBS-induced colitis [4] (oral 100 mg/kg, five days), “significant reduction of the IBD score”. In addition, the histopathological inflammation score result in the data set on DNBS-induced colitis [5] is reported as “significantly reduced the histopathological inflammation”. Further, in the data set with MMP-9 [6], the MMP-9 activity result is recorded as “reduced MMP-9 activity”. Further, in data set [7], the body weight result is listed as “started gaining body weight after one day of treatment”.

With Benzalkonium chloride [BAC], the MIC against Pseudomonas aeruginosa (isolate NP220 (BAC-sensitive)) turned out to be 63 µg/mL; against Pseudomonas aeruginosa (isolate NP221 (BAC-resistant)) it was 4000 µg/mL; in the data set with Pseudomonas aeruginosa (isolate NP222 (BAC-sensitive)), 63 µg/mL.

In the case of Sodium parabens, the “Reaction with nanocrystalline silver” value in [1] is “Precipitation”.

As to silver oxide [Ag2O], the MIC worked out at 3 µg/mL against Staphylococcus aureus (S. aureus (ATCC)); 6 µg/mL in the data set on Staphylococcus aureus (S. aureus (clin.)); 3 µg/mL in the data set with Streptococcus pneumoniae (S. pneumo (clin 314)); 2 µg/mL with Streptococcus pneumoniae (S. pneumo (clin 315)); 0.8 µg/mL in the data set on Escherichia coli (E. coli (ATCC), lactate solutions); 2 µg/mL in data set [8]. In addition, the MIC against Pseudomonas aeruginosa (P. aerug (ATCC), lactate solutions) was 0.8 µg/mL; with Pseudomonas aeruginosa (P. aerug. (clin.), lactate solutions), 2 µg/mL; against Streptococcus pyogenes (S. pyog (clin. 303)), 2 µg/mL; in the data set on Streptococcus pyogenes (S. pyog (clin. 304)), 3 µg/mL; in [2], 2.5 μg/ml silver. Moreover, the “total IBD score” value in the data set on DNBS-induced colitis [4] (0.05% sonicated nanodispersion, 250 μl intracolonically once a day for five days) is “but not 0.15% and 0.05%, significantly reduced”; in the data set on DNBS-induced colitis [4] (0.15% sonicated nanodispersion, 250 μl intracolonically once a day for five days) it was “but not 0.15% and 0.05%, significantly reduced”; with DNBS-induced colitis [4] (0.25% homogenized, 250 μl intracolonically once a day for five days), “unable to show significant reduction”; in the data set with DNBS-induced colitis [4] (0.5% homogenized, 250 μl intracolonically once a day for five days), “unable to show significant reduction”; in the data set with DNBS-induced colitis [4] (0.5% sonicated nanodispersion, 250 μl intracolonically once a day for five days, vs placebo), “significantly reduced the total IBD score”; in the data set on DNBS-induced colitis [4] (1.5% sonicated nanodispersion, 250 μl intracolonically once a day for five days), “significantly reduced the total IBD score”.
